According to patent US10526347B2, “3-(3H-imidazo[4,5-B]pyridin-2-yl)-1H-pyrazolo[3,4-B]pyridine and therapeutic uses thereof” (Samumed, LLC, priority 2014, dated 2020):

system: Wnt activity (SW480 colon carcinoma cells stably expressing the Sp5-Luc reporter gene); assay: Sp5-Luc reporter gene screening assay for Wnt activity; type: cell-based; conditions: Homo sapiens
Source text: The screening assay for Wnt activity is described as follows. Reporter cell lines can be generated by stably transducing cancer cell lines (e.g., colon cancer) or primary cells (e.g., IEC-6 intestinal cells) with a lentiviral construct that includes a Wnt-responsive promoter driving expression of the firefly luciferase gene.
SW480 colon carcinoma cells were transduced with a lentiviral vector expressing luciferase with a human Sp5 promoter consisting of a sequence of eight TCF/LEF binding sites. SW480 cells stably expressing the Sp5-Luc reporter gene and a hygromycin resistance gene were selected by treatment with 150 μg/ml of hygromycin for 7 days. These stably transduced SW480 cells were expanded in cell culture and used for all further screening activities. For Sp5-Luc reporter gene assays, the cells were plated at 10,000 cells/well in 96-well plates with growth medium containing 10% fetal calf serum and incubated overnight at 37° C. and 5% CO2. Each compound was dissolved in DMSO as a 10 mM stock in standard j-vials and used to prepare compound source plates in dose-response format with 3-fold serial dilutions and a 10 mM top concentration. Compound transfer from serially diluted source plates to assay plates containing the cells was accomplished using a pintool (Multimek 96, Beckman equipped with V&P Scientific FP1S50H pins) based liquid handling protocol. This protocol used a slotted pin to transfer 50 nl of compound from a source plate well to an assay plate well containing 50 μl of cells in growth medium. […] Control wells received 50 nl of DMSO treatment for normalization and calculating IC50 values. The treated cells were incubated at 37° C. and 5% CO2 for an additional forty-two hours. Following incubation, the growth medium was removed and 50 μl of BrightGlo luminescence reagent (Promega) was added to each well of the 96-well assay plates. The plates were placed on an orbital shaker for 5 min and then luminescence was quantified on the Victor3 (Perkin Elmer) plate reader. Readings were normalized to DMSO only treated cells, and normalized activities were utilized for IC50 calculations using the dose-response log (inhibitor) vs. response -variable slope (four parameters) nonlinear regression feature available in GraphPad Prism 5.0 or 6.0.

| SMILES | IC50 [nM] |
| --- | --- |
| CN1CCN(c2ccnc3[nH]c(-c4n[nH]c5ncc(-c6cncc(NC(=O)C7CCCC7)c6)cc45)nc23)CC1 [Compound 204, N-(5-(3-(7-(4-Methylpiperazin-1-yl)-3H-imidazo[4,5-b]pyridin-2-yl)-1H-pyrazolo[3,4-b]pyridin-5-yl)pyridin-3-yl)cyclopentanecarboxamide] | 312 |
| CN(C)c1cncc(-c2cnc3[nH]nc(-c4nc5c(-c6cccc(F)c6)ccnc5[nH]4)c3c2)c1 [Compound 5, 5-(3-(7-(3-Fluorophenyl)-3H-imidazo[4,5-b]pyridin-2-yl)-1H-pyrazolo [3,4-b]pyridin-5-yl)-N,N-dimethylpyridin-3-amine] | 172 |
| Fc1cccc(-c2ccnc3[nH]c(-c4n[nH]c5ncc(-c6cncc(CN7CCC(F)(F)C7)c6)cc45)nc23)c1 [Compound 21, 5-(5-((3,3-Difluoropyrrolidin-1-yl)methyl)pyridin-3-yl)-3-(7-(3-fluorophenyl)-3H-imidazo[4,5-b]pyridin-2-yl)-1H-pyrazolo[3,4-b]pyridine] | 35.8 |
| CC(C)(C)CC(=O)Nc1cncc(-c2cnc3[nH]nc(-c4nc5cccnc5[nH]4)c3c2)c1 [Compound 222, N-(5-(3-(3H-Imidazo[4,5-b]pyridin-2-yl)-1H-pyrazolo[3,4-b]pyridin-5-yl)pyridin-3-yl)-3,3-dimethylbutanamide] | 192 |
| CCCCC(=O)Nc1cncc(-c2cnc3[nH]nc(-c4nc5c(-c6ccoc6)ccnc5[nH]4)c3c2)c1 [Compound 276, N-(5-(3-(7-(Furan-3-yl)-3H-imidazo[4,5-b]pyridin-2-yl)-1H-pyrazolo [3,4-b]pyridin-5-yl)pyridin-3-yl)pentanamide] | 8.1 |
| CN1CCN(c2ccnc3[nH]c(-c4n[nH]c5ncc(-c6cncnc6)cc45)nc23)CC1 [Compound 209, 3-(7-(4-Methylpiperazin-1-yl)-3H-imidazo[4,5-b]pyridin-2-yl)-5-(pyrimidin-5-yl)-1H-pyrazolo[3,4-b]pyridine] | > 10000 |
| CC(C)(C)CC(=O)Nc1cncc(-c2cnc3[nH]nc(-c4nc5c(-c6ccccc6F)ccnc5[nH]4)c3c2)c1 [Compound 57, N-(5-(3-(7-(2-Fluorophenyl)-3H-imidazo[4,5-b]pyridin-2-yl)-1H-pyrazolo[3,4-b]pyridin-5-yl)pyridin-3-yl)-3,3-dimethylbutanamide] | 118 |
| Fc1ccc(-c2ccnc3[nH]c(-c4n[nH]c5ncc(-c6cncnc6)cc45)nc23)cc1 [Compound 44, 3-(7-(4-Fluorophenyl)-3H-imidazo[4,5-b]pyridin-2-yl)-5-(pyrimidin-5-yl)-1H-pyrazolo[3,4-b]pyridine] | 377 |

Other lines, results leading:

| IC50 [nM] | SMILES |
| --- | --- |
| 1020 | NC1CN(c2cncc(-c3cnc4[nH]nc(-c5nc6c(-c7cccc(F)c7)ccnc6[nH]5)c4c3)n2)C1 [Compound 914, 1-(6-(3-(7-(3-Fluorophenyl)-3H-imidazo[4,5-b]pyridin-2-yl)-1H-pyrazolo [3,4-b]pyridin-5-yl)pyrazin-2-yl)azetidin-3-amine] |
| 890 | CC(C)CC(=O)Nc1cncc(-c2cnc3[nH]nc(-c4nc5c(-c6cc(F)cc(OCCN7CCCC7)c6)ccnc5[nH]4)c3c2)c1 [Compound 1278, N-(5-(3-(7-(3-Fluoro-5-(2-(pyrrolidin-1-yl)ethoxy)phenyl)-3H-imidazo[4,5-b]pyridin-2-yl)-1H-pyrazolo[3,4-b]pyridin-5-yl)pyridin-3-yl)-3-methylbutanamide] |
| 38 | FC1(F)CCN(Cc2cncc(-c3cnc4[nH]nc(-c5nc6c(-c7cccs7)ccnc6[nH]5)c4c3)c2)C1 [Compound 309, 5-(5-((3,3-Difluoropyrrolidin-1-yl)methyl)pyridin-3-yl)-3-(7-(thiophen-2-yl)-3H-imidazo[4,5-b]pyridin-2-yl)-1H-pyrazolo[3,4-b]pyridine] |
| 395 | CC(C)CC(=O)Nc1cncc(-c2cnc3[nH]nc(-c4nc5c(-c6cc(O)cc(F)c6)ccnc5[nH]4)c3c2)c1 [Compound 1322, N-(5-(3-(7-(3-Fluoro-5-hydroxyphenyl)-3H-imidazo[4,5-b]pyridin-2-yl)-1H-pyrazolo[3,4-b]pyridin-5-yl)pyridin-3-yl)-3-methylbutanamide] |
| > 10000 | Fc1cccc(-c2ccnc3[nH]c(-c4n[nH]c5ncc(-c6cncc(OCCN7CCCC7)c6)cc45)nc23)c1 [Compound 918, 3-(7-(3-Fluorophenyl)-3H-imidazo[4,5-b]pyridin-2-yl)-5-(5-(2-(pyrrolidin-1-yl)ethoxy)pyridin-3-yl)-1H-pyrazolo[3,4-b]pyridine] |
| 125 | COc1cc(F)cc(-c2ccnc3[nH]c(-c4n[nH]c5ncc(-c6cncc(NC(=O)CC(C)C)c6)cc45)nc23)c1 [Compound 1366, N-(5-(3-(7-(3-Fluoro-5-methoxyphenyl)-3H-imidazo[4,5-b]pyridin-2-yl)-1H-pyrazolo[3,4-b]pyridin-5-yl)pyridin-3-yl)-3-methylbutanamide] |
| 43.8 | CN(C)c1cncc(-c2cnc3[nH]nc(-c4nc5c(-c6cccs6)ccnc5[nH]4)c3c2)c1 [Compound 291, N,N-Dimethyl-5-(3-(7-(thiophen-2-yl)-3H-imidazo[4,5-b]pyridin-2-yl)-1H-pyrazolo[3,4-b]pyridin-5-yl)pyridin-3-amine] |
| 1130 | CC(C)CC(=O)Nc1cncc(-c2cnc3[nH]nc(-c4nc5c(-c6cc(F)cc(OCCN(C)C)c6)ccnc5[nH]4)c3c2)c1 [Compound 1234, N-(5-(3-(7-(3-(2-(Dimethylamino)ethoxy)-5-fluorophenyl)-3H-imidazo[4,5-b]pyridin-2-yl)-1H-pyrazolo[3,4-b]pyridin-5-yl)pyridin-3-yl)-3-methylbutanamide] |
| > 10000 | O=C(CC1CCCCC1)Nc1cncc(-c2cnc3[nH]nc(-c4nc5c(-c6cccc(F)c6)ccnc5[nH]4)c3c2)c1 [Compound 923, 2-Cyclohexyl-N-(5-(3-(7-(3-fluorophenyl)-3H-imidazo[4,5-b]pyridin-2-yl)-1H-pyrazolo[3,4-b]pyridin-5-yl)pyridin-3-yl)acetamide] |
| > 10000 | Fc1cccc(-c2ccnc3[nH]c(-c4n[nH]c5ncc(-c6cncc(OC7CCCCC7)c6)cc45)nc23)c1 [Compound 915, 5-(5-(Cyclohexyloxy)pyridin-3-yl)-3-(7-(3-fluorophenyl)-3H-imidazo[4,5-b]pyridin-2-yl)-1H-pyrazolo[3,4-b]pyridine] |
| > 10000 | O=C(CC1CCNCC1)Nc1cncc(-c2cnc3[nH]nc(-c4nc5c(-c6cccc(F)c6)ccnc5[nH]4)c3c2)c1 [Compound 917, N-(5-(3-(7-(3-Fluorophenyl)-3H-imidazo[4,5-b]pyridin-2-yl)-1H-pyrazolo [3,4-b]pyridin-5-yl)pyridin-3-yl)-2-(piperidin-4-yl)acetamide] |
| > 10000 | Fc1cccc(-c2ccnc3[nH]c(-c4n[nH]c5ncc(-c6cncc(OCc7ccccc7)c6)cc45)nc23)c1 [Compound 922, 5-(5-(Benzyloxy)pyridin-3-yl)-3-(7-(3-fluorophenyl)-3H-imidazo[4,5-b]pyridin-2-yl)-1H-pyrazolo[3,4-b]pyridine] |
